Laboratory results from patent US20190133997A1, “ARTEMISININ ANALOG, AND USE, METHOD, AND COMPOSITION FOR PROMOTING LIPID CATABOLISM AND IMPROVING SUGAR METABOLISM” (FUDAN UNIVERSITY, priority 2016, published 2019).

Columns and labels:
[1] = tested on: BMP4-directed C3H10T1/2; assay: Artemisinin and analogues on BMP4-directed C3H10T1/2 (morphology, Western blot); format: cell-based; details: concentration shown in FIG. 8, from Day 0 of differentiation; vs control
Protocol: 4.3.1 Culture and Differentiation of C3H10T1/2 According to Method 2.4.1.
Artemisinin, artesunate and dihydroartemisinin were stored in DMSO at a storage concentration of 10 mMol/L. The concentration shown in FIG. 8 was added on Day 0 of differentiation. Fresh medium was replaced every two days, and the corresponding concentrations of compounds were added until the cells differentiated to mature.
The method for extracting C3H10T1/2 cell total protein was the same as 2.4.3;
Western blot method and catalog number of antibody was the same as 2.4.4.

[2] = tested on: high fat-fed mice; assay: Subcutaneous artemether, adipose tissue in high fat-fed mice; format: in vivo, Male C57BL/6J mice; details: high-fat diet, subcutaneous injection, eight weeks
Protocol: The mice were breeded in the SPF animal laboratory of the Laboratory Animal Center of Fudan University at a room temperature of 21° C.-23° C. with a 12-hour light/dark cycle. […] When the mice were grown to 8-week old, they were randomly divided into a control group and an administration group, with 8 mice in each group. While the mice were fed with a high-fat diet, artemether was injected subcutaneously. Artemether was diluted in PBS at a concentration of […], and injected into bilateral inguinal region, with 200 μl being injected into each side. Mice in control group were injected with the same volume of PBS. Administration was continued for eight weeks. The mice were sacrificed by cervical dislocation and were dissected, and inguinal fat (Inguinal, subcutaneous fat), epididymal fat (Gonadal, visceral fat) and brown fat in the interscapular region (BAT, classic brown fat) were removed, weighed and fixed. The histological analysis of adipose tissue was commissioned by Shanghai Saige Biotech Co., Ltd. The histological analysis process included the steps of fixing, paraffin embedding, sectioning and HE staining.

[3] = tested on: obese mice induced by high-fat diet; assay: Subcutaneous artemether, glucose and insulin tolerance tests in high-fat diet obese mice; format: in vivo, Male C57BL/6J mice; details: subcutaneous injection, eight weeks
Protocol: The mice were breeded in the SPF animal laboratory of the Laboratory Animal Center of Fudan University at a room temperature of 21° C.-23° C. with a 12-hour light/dark cycle. […] When the mice were grown to 8-week old, they were randomly divided into a control group and an administration group, with 8 mice in each group. While the mice were fed with a high-fat diet, artemether was injected subcutaneously. Artemether was diluted in PBS at a concentration of […], and injected into bilateral inguinal region, with 200 μl being injected into each side. Mice in control group were injected with the same volume of PBS. Administration was continued for eight weeks.
(§1) The mice were fasted for 12-16 hours and injected intraperitoneally with glucose injection at a dose of […]. At 0 min, 30 min, 60 min, 90 min, and 120 min after injection, blood was collected from the tail vein, and blood glucose was measured with OneTouch ExtraEasy glucometer and OneTouch ExtraEasy blood glucose test strips and the results were recorded.
(§2) Insulin was injected intraperitoneally at a dose of 0.75 U/kg weight. At 0 min, 15 min, 30 min, 45 min and 60 min after injection, blood was collected from the tail vein, and blood glucose was measured.

[4] = tested on: high fat-fed mice; assay: Intraperitoneal artemether, cold exposure and UCP1 immunohistochemistry of subcutaneous fat in high fat-fed mice; format: in vivo, Male C57BL/6J mice; details: high-fat diet, intraperitoneal 20 mg/kg twice a week, eight weeks
Protocol: The mice were breeded in the SPF animal laboratory of the Laboratory Animal Center of Fudan University at a room temperature of 21° C.-23° C. with a 12-hour light/dark cycle. […] When the mice were grown to 8-week old, they were randomly divided into a control group and an administration group, with 8 mice in each group. While the mice were fed with a high-fat diet, artemether was injected intraperitoneally. Artemether for intraperitoneal injection was stored at 4° C. in coconut oil at a storage concentration of 6 mg/ml (20 mMol/L), and protected from light. Mice in administration group were injected with artemether at a dose of 20 mg/kg weight. Administration was twice a week for eight weeks. Mice were fasted and housed in a breeding box at 4° C. The rectal temperature was measured every 2 hours. The mice were sacrificed by cervical dislocation after 6 hours, and the inguinal fat was removed for histological analysis. The histological analysis including tissue fixation, paraffin embedding, sectioning and immunohistochemistry experiment of UCP1 was commissioned by Shanghai Saige Biotech Co., Ltd.

[5] = Intraperitoneal artemether, growth of healthy mice on normal diet; format: in vivo, Male C57BL/6J mice; details: intraperitoneal 20 mg/kg twice a week, eight weeks, vs control
Protocol: (§3) The mice were breeded in the SPF animal laboratory of the Laboratory Animal Center of Fudan University at a room temperature of 21° C.-23° C. with a 12-hour light/dark cycle. When the mice were grown to 8-week old, they were randomly divided into a control group and an administration group, with 8 mice in each group. Mice in administration group were injected intraperitoneally with artemether. Artemether for intraperitoneal injection was stored at 4° C. in coconut oil at a storage concentration of 6 mg/ml (20 mMol/L), and protected from light. Mice in administration group were injected with artemether at a dose of 20 mg/kg weight. Mice in control group were injected with 100 μl coconut oil. Administration was twice a week for eight weeks and the weight of the mice was recorded weekly.

[6] = Intraperitoneal artemether, glucose metabolism in healthy lean mice; format: in vivo, Male C57BL/6J mice; details: intraperitoneal 20 mg/kg twice a week, eight weeks
Protocol: as §3, with “group.” for “group. Mice in administration group were injected intraperitoneally with artemether.”, “weight, and mice” for “weight. Mice”, “weeks.” for “weeks and the weight of the mice was recorded weekly.”
as §1, §2

[7] = Intraperitoneal artemether, food intake of mice on normal and high-fat diet; format: in vivo, Male C57BL/6J mice; details: intraperitoneal 20 mg/kg
Protocol: The mice were breeded in the SPF animal laboratory of the Laboratory Animal Center of Fudan University at a room temperature of 21° C.-23° C. with a 12-hour light/dark cycle. When the mice were grown to 8-week old, they were randomly divided into four groups, a high-fat control group, a high-fat administration group, a normal administration group, and a normal control group, with 8 mice in each group. Administration groups (high-fat and normal diet) were injected intraperitoneally with artemether. Artemether for intraperitoneal injection was stored at 4° C. in coconut oil at a storage concentration of 6 mg/ml (20 mMol/L), and protected from light. Mice in administration group were injected with artemether at a dose of 20 mg/kg weight, and mice in control group were injected with 100 μl coconut oil. The diet was weighed weekly and the diet consumption of mice in each group was recorded.

weight gain of healthy mice [5]: not significantly different | weight of healthy mice [5]: no difference | anorexia nervosa ([7]; normal diet and high fat diet): did not cause anorexia nervosa
Structure (SMILES): CO[C@H]1O[C@@H]2O[C@@]3(C)CC[C@H]4[C@H](C)CC[C@@H]([C@H]1C)[C@@]24OO3 [artemether]
cell morphology of C3H10T1/2 [1]: exhibited brown adipocyte-like characteristics | adipocyte size (sectioning and HE staining) [2]: significantly smaller than that of mice in control group | volume of adipose tissue (inguinal fat, epididymal fat and brown fat) [2]: significantly smaller than that of mice in control group | weight of adipose tissue (inguinal fat, epididymal fat and brown fat) [2]: significantly smaller than that of mice in control group | glucose tolerance [3]: significantly better than that of mice in control group | insulin tolerance [3]: significantly better than that of mice in control group | body temperature in an environment of 4° C. [4]: significantly higher than that of mice in control group | UCP1 expression in subcutaneous fat (immunohistochemistry) ([4]; after 6 hours at 4° C.): exhibited significant UCP1 expression | glucose tolerance curve [6]: did not differ from that of mice in control group | insulin tolerance curve [6]: did not differ from that of mice in control group | diet consumption of mice ([7]; high-fat groups): substantially the same as that of mice in control group | diet consumption of mice ([7]; normal groups): not different from that of mice in control group
